Experiments:
[1] = Treprostinil plasma concentrations in rats after a single intraduodenal dose of prodrugs (Example 3); details: rat; for Tmax (of Treprostinil) / Maximum Treprostinil concentrations: intraduodenal; for adverse reactions following intraduodenal administration: single intraduodenal dose; for Maximum Treprostinil concentrations: 5 minutes post-dosing
Source text: This example illustrates a pharmacokinetic study of treprostinil following administration of a single duodenal dose of treprostinil and various prodrugs of the present invention.
In this study, the area under the curve of Treprostinil in male Sprague-Dawley rats following a single intraduodenal dose of treprostinil monophosphate (ring), treprostinil monovaline (ring), treprostinil monoalanine (ring) or treprostinil monoalanine (chain), prodrugs of treprostinil was compared. The compounds were as follows:
This solution was further diluted with 1.50 mL of PEG 400:Polysorbate 80:Water, 40:1:49.
A 50 mg/mL solution of treprostinil monovaline (ring) was prepared in dimethylacetamide (DMA). A 25 μL aliquot of the 50 mg/mL stock solution was then diluted with 175 μL of DMA and 1.8 mL of PEG 400:Polysorbate 80:Water, 40:1:49.
This solution was further diluted with 1.60 mL of PEG 400:polysorbate 80:Water, 40:1:49. The final concentration of the dosing vehicle was 0.590 mg/mL of treprostinil monoalanine (ring) equivalent to 0.5 mg/mL of Treprostinil.
A solution of treprostinil monoalanine (chain) was prepared by dissolving 0.83 mg of treprostinil monoalanine (chain) in 0.14 mL of dimethylacetamide (DMA) until dissolved. This solution was further diluted with 1.26 mL of PEG 400:Polysorbate 80:Water, 40:1:49.
The plasma concentrations of Treprostinil following […] of each prodrug were evaluated in male Sprague-Dawley rats. […] All groups were dosed on day 1 of the study.
Animals were dosed via an indwelling duodenal cannula.
The blood samples were withdrawn and placed into tubes containing 30 μL of a solution of 500 units per mL of heparin in saline, and centrifuged at 13,000 rpm for 10 minutes. Approximately 200 μL of plasma was then removed and dispensed into appropriately labeled polypropylene tubes containing 4 μL of acetic acid in order to stabilize any prodrug remaining in the samples. The plasma samples were frozen at −20° C. and were transported on ice to Absorption Systems Exton Facility. There they were stored in a −80° C. freezer pending analysis.
Plasma samples were analyzed using the methods described above. In brief, Treprostinil was extracted from the plasma via solid phase extraction then analyzed by LC/MS/MS. The lower limit of quantification (LLOQ) of the analytical method was 0.03 ng/mL.
Pharmacokinetic analysis was performed on the plasma concentration of Treprostinil for each individual rat at each time point and on the average plasma concentration for all three rats in the group for each time point.
The following formula was used to determine relative bioavailability (F): Relative F=(AUC(Prodrug Dose)/Dose)/(AUC(Treprostinil Dose)/Dose)*100

[2] = Treprostinil plasma concentrations in rats after a single oral dose of prodrugs (Example 2); type: in vivo, male Sprague-Dawley rats; details: rat; for Treprostinil AUC compared with dosing the active compound: oral; for adverse reactions following oral administration: single oral dose
Experimental: In this Example, Treprostinil concentrations were determined in male Sprague-Dawley rats following a single oral dose of the following compounds:
A solution of treprostinil methyl ester was prepared by dissolving 2.21 mg of treprostinil methyl ester with 0.85 mL of dimethylacetamide (DMA). […] The final concentration of the dosing vehicle was 0.26 mg/mL of treprostinil methyl ester equivalent to 0.25 mg/mL of Treprostinil.
A solution of treprostinil benzyl ester was prepared by dissolving 2.58 mg of treprostinil benzyl ester with 0.84 mL of dimethylacetamide (DMA). […] The final concentration of the dosing vehicle was 0.268 mg/mL of treprostinil benzyl ester equivalent to 0.25 mg/mL of Treprostinil.
A solution of treprostinil diglycine was prepared by dissolving 1.86 mg of compound with 0.58 mL of dimethylacetamide (DMA). […] The final concentration of the dosing vehicle was 0.323 mg/mL of treprostinil diglycine equivalent to 0.25 mg/mL of Treprostinil.
Groups I-III were dosed on the same day.
Animals were dosed via oral gavage.
Plasma samples were analyzed as described in Example 1. In brief, Treprostinil was extracted from the plasma via liquid-liquid extraction then analyzed by LC/MS/MS. The analytical validation results were reported previously in Example 1. […] Samples were not assayed for unchanged prodrug.

[3] = subcutaneous infusion; cited from earlier work
[4] = Moisture sorption / hygroscopicity of treprostinil diethanolamine polymorphs; type: physicochemical; details: for weight gain in humidity chamber: 23 days
Experimental: The initial material synthesized (termed Form A) was characterized using X-ray powder diffraction (XRPD), differential scanning calorimetry (DSC), thermogravimetry (TG), hot stage microscopy, infrared (IR) and Raman spectroscopy, and moisture sorption. The IR and Raman spectra for Form A are shown in FIGS. 16 and 17, respectively. […] The moisture sorption data are shown graphically in FIG. 19. […] In addition, hygroscopicity of treprostinil diethanolamine was evaluated in humidity chambers at approximately 52% RH and 68% RH. […] Upon desorption from 95% down to 5% RH, the sample loses approximately 47%.

[5] = Clinical Study 01-101: escalating doses of UT-15C oral solution; details: for mean absolute bioavailability: based on historical intravenous treprostinil sodium data
Experimental: Prior to proceeding directly into clinical studies with a sustained release (SR) solid dosage form of UT-15C (treprostinil diethanolamine), a determination of the pharmacokinetics of an oral “immediate release” solution was performed.
A Safety, Tolerability, and Pharmacokinetic Study of Multiple Escalating Doses of UT-15C (Treprostinil Diethanolamine) Administered as an Oral Solution in Healthy Adult Volunteers (Including Study of Bioavailability).
Study endpoints included standard safety assessments (adverse events, vital signs, laboratory parameters, physical examinations, and electrocardiograms) as well as pharmacokinetic parameters.

[6] = slurry inter-conversion in isopropanol and tetrahydrofuran
Source text: Form A is made according to the methods in Table 15. Form B is made from Form A, in accordance with the procedures of Table 16.

In the case of CCCCCC(O)CCC1C(OC(=O)C(C)N)CC2Cc3c(cccc3OCC(=O)O)CC21 [treprostinil monoalanine (ring), 2-L-Alanine Ester of Treprostinil], the “Tmax (of Treprostinil)” value [1] is reported as 60 min and the “adverse reactions following intraduodenal administration” value [1] is reported as “No adverse reactions were observed”.

For CCCCCC(O)CCC1C(OC(=O)C(N)C(C)C)CC2Cc3c(cccc3OCC(=O)O)CC21 [treprostinil monovaline (ring), 2-L-Valine Ester of Treprostinil], the “Tmax (of Treprostinil)” value [1] was 120 min and the “adverse reactions following intraduodenal administration” value [1] was “No adverse reactions were observed”.

For CCCCC[C@H](CC[C@@H]1C2Cc3cccc(OCC(=O)O)c3CC2C[C@H]1OC(=O)CN)OC(=O)CN (some centres unmarked) [Treprostinil diglycine, Bis-Glycyl Ester of Treprostinil], the “Treprostinil AUC compared with dosing the active compound” value [2] was “greater than that after dosing of the active compound” and the “adverse reactions following oral administration” value [2] was “No adverse reactions were observed”.

In the case of CCCCC[C@@H](O)CC[C@@H]1C2Cc3cccc(OCC(=O)OCc4ccccc4)c3CC2C[C@H]1O (some centres unmarked) [Treprostinil benzyl ester, Benzyl Ester of Treprostinil], the “Treprostinil AUC compared with dosing the active compound” value [2] is reported as “greater than that after dosing of the active compound” and the “adverse reactions following oral administration” value [2] is reported as “No adverse reactions were observed”.

In the case of CCCCC[C@H](O)CC[C@@H]1[C@H]2Cc3cccc(OCC(=O)OC)c3C[C@H]2C[C@H]1O [Treprostinil methyl ester, Methyl Ester of Treprostinil], the “Treprostinil AUC compared with dosing the active compound” value [2] is reported as “less than that after dosing the active compound” and the “adverse reactions following oral administration” value [2] is reported as “No adverse reactions were observed”.

With CCCCC[C@@H](CC[C@@H]1[C@H]2Cc3cccc(OCC(=O)O)c3C[C@H]2C[C@H]1O)OC(=O)[C@H](C)N [treprostinil monoalanine (chain), 3′-L-Alanyl Ester of Treprostinil] the “Tmax (of Treprostinil)” value [1] was 5 min, the “Maximum Treprostinil concentrations” value [1] was “approximately 9 ng/mL” and the “adverse reactions following intraduodenal administration” value [1] was “No adverse reactions were observed”.

With CCCCCC(O)CCC1C(OP(=O)(O)O)CC2Cc3c(cccc3OCC(=O)O)CC21 (centres unmarked) [treprostinil monophosphate (ring), 2-Monophosphate Ester of Treprostinil] the “Tmax (of Treprostinil)” value [1] was 5 min, the “Maximum Treprostinil concentrations” value [1] was “approximately 9 ng/mL” and the “adverse reactions following intraduodenal administration” value [1] was “No adverse reactions were observed”.

In the case of CCCCC[C@H](O)CC[C@@H]1[C@H]2Cc3cccc(OCC(=O)[O-])c3C[C@H]2C[C@H]1O.[Na+] [treprostinil sodium, (1R,2R,3aS,9aS)-[[2,3,3a,4,9,9a-Hexahydro-2-hydroxy-1-[(3S)-3-hydroxyoctyl]-1H-benz[f]inden-5-yl]oxy]acetic acid monosodium salt], the absolute bioavailability [3] is listed as about 100%.

In the case of CCCCC[C@H](O)CC[C@@H]1[C@H]2Cc3cccc(OCC(=O)O)c3C[C@H]2C[C@H]1O.OCCNCCO [Form B], the “weight loss in moisture sorption” value ([4]; 5% RH) is reported as “minimal weight loss”, the water absorbed ([4]; 95% RH) is reported as “approximately 49%” and the loss upon desorption ([4]; from 95% down to 5% RH) is reported as “approximately 47%”.

In the case of CCCCC[C@H](O)CC[C@@H]1[C@H]2Cc3cccc(OCC(=O)O)c3C[C@H]2C[C@H]1O.OCCNCCO [UT-15C, Treprostinil Diethanolamine], the “Treprostinil plasma concentrations detectable” value [5] is reported as “detectable in all subjects”, the “changes in hematology, clinical chemistry, urinalysis, vital signs, physical exams, and ECGs” value [5] is reported as “no clinically significant, treatment emergent changes” and the “most frequently reported adverse events” value [5] is reported as “flushing, headache, and dizziness”. For the same compound, the mean absolute bioavailability ([5]; 0.2 mg total dose) was 21%, the mean absolute bioavailability ([5]; 0.5 mg total dose) was 23% and the mean absolute bioavailability ([5]; 1.0 mg total dose) was 24%. The mean absolute bioavailability ([5]; 2.0 mg total dose) was 25%, the “highest (treprostinil plasma) concentration observed” value ([5]; after the third dose aliquot of the 2.0 mg total dose) was 5.51 ng/mL and the tolerability ([5]; all doses given) was “well tolerated by the majority of subjects”. The “AUCinf and Cmax versus dose” value ([5]; each of the four dose aliquots) was “increased in a linear fashion with dose”, the “weight gain in humidity chamber” value ([4]; ~52% RH) was 4.9% and the “weight gain in humidity chamber” value ([4]; ~68% RH) was 28%.

With CCCCC[C@H](O)CC[C@@H]1[C@H]2Cc3cccc(OCC(=O)O)c3C[C@H]2C[C@H]1O.OCCNCCO [Form A] the “thermodynamic stability of the crystal form” value [6] was “metastable”, the hygroscopicity [4] was “hygroscopic” and the “weight gain during moisture sorption” value ([4]; beginning between 65 to 75% RH) was over 33%.

Reference: patent US11292758B2, “Compounds and methods for delivery of prostacyclin analogs” (United Therapeutics Corporation, priority 2003, dated 2022)
